Here are results for 36 compounds from patent US20190110476A1, “NOVEL ISOTHIAZOLAMIDES, PROCESSES FOR THEIR PREPARATION AND THEIR USE AS FUNGICIDES” (priority 2014, published 2019).

Each structure is given as a SMILES string. Marks after values point to notes of the source that are not given here.

The nature of the data set: Measurement of LogP values by HPLC on reversed phase columns (EEC directive 79/831 Annex V.A8). The format is physicochemical. The essentials: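 Following EEC directive 79/831 Annex V.A8, lipophilicity was derived from retention on reversed-phase HPLC columns. Separate values are given per diastereoisomer, and UV lambda-max (200–400 nm) was read at the peak signals.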

As to `Nc1nsc(C(=O)NCC2CCCCC2)c1-c1ccc(F)cc1` [I-332], the LogP is 2.96[a]. `C[C@H](NC(=O)c1snc(N)c1-c1ccc(F)cc1)C1CCCCC1` [I-333]: the LogP is 3.29[a]. For `Nc1nsc(C(=O)NC2CCCCC2)c1-c1ccc(F)cc1` [I-334], the LogP was 2.66[a]. With `Nc1nsc(C(=O)NCc2ccccc2F)c1-c1ccc(F)cc1` [I-335], the LogP is 2.43[a]. The same measure for `Nc1nsc(C(=O)NCc2ccc(Cl)cc2)c1-c1ccc(F)cc1` [I-336]: 2.73[a]; for `Nc1nsc(C(=O)NCC2CC2)c1Cl` [I-337]: 1.30[a]; for `Cc1cc(CNC(=O)c2snc(N)c2Cl)ccc1F` [I-349]: 2.28[a]. With `COc1ccc(CNc2nsc(C(=O)NCc3ccc(F)c(C)c3)c2Cl)cc1` [I-350], the LogP was 3.89[a]. `Nc1nsc(C(=O)NCc2ccc(Cl)cc2)c1C1CC1` [I-358]: the LogP was 2.21[a]. On to `Nc1nsc(C(=O)NCC2CCCCC2)c1C1CC1` [I-359], for which the LogP was 2.37[a]. Turning to `Nc1nsc(C(=O)NC2CCCCC2)c1C1CC1` [I-360], the LogP is 2.00[a]. As for `Nc1nsc(C(=O)NCc2ccccc2F)c1C1CC1` [I-361], the LogP is 1.88[a]. In the case of `Nc1nsc(C(=O)N(Cc2cc(F)ccc2F)C2CC2)c1Cl` [I-362], the LogP is 2.57[a].

As for `Cc1ccc(F)c(CN(C(=O)c2snc(N)c2Cl)C2CC2)c1` [I-363], the LogP is 2.80[a]. Consider `Nc1nsc(C(=O)N(Cc2cc(Cl)ccc2F)C2CC2)c1Cl` [I-364], for which the LogP was 2.86[a]. Under `Nc1nsc(C(=O)N(Cc2cc(Cl)ccc2Br)C2CC2)c1Cl` [I-365] stands 3.29[a]; under `COc1ccc(CNc2nsc(C(=O)NCc3ccc(Br)cc3)c2Cl)cc1` [I-366], 4.01[a].

Take `Nc1nsc(C(=O)NCc2ccc(Br)cc2)c1Cl` [I-372]: the LogP is 2.39[a].

Consider `COc1ccc(CNc2nsc(C(=O)NCc3ccc(Cl)cc3C)c2Cl)cc1` [I-376], for which the LogP was 4.20[a].

`Cc1cc(Cl)ccc1CNC(=O)c1snc(N)c1Cl` [I-389]: the LogP was 2.60[a]. For `COc1ccc(CNc2nsc(C(=O)NCc3ccc(Cl)c(OC)c3)c2Cl)cc1` [I-390], the LogP was 3.76[a]. As to `COc1ccc(CNc2nsc(C(=O)NCc3cc(C)ccc3C3(C)CC3)c2Cl)cc1` [I-391], the LogP is 4.92[a]. With `COc1ccc(CNc2nsc(C(=O)NCc3cc(C)ccc3C(C)C)c2Cl)cc1` [I-392], the LogP was 4.80[a]. Consider `COc1ccc(CNc2nsc(C(=O)NCc3cc(Cl)ccc3Cl)c2Cl)cc1` [I-393], for which the LogP was 4.34[a]. As to `O=C(NCC1CCCCC1)c1snc(N(Cc2ccccc2)Cc2ccccc2)c1C(F)F` [I-394], the LogP is 5.88[a].

As for `O=C(NCc1ccc(F)cc1F)c1cc(NC(=O)C(F)(F)F)ns1` [I-398], the LogP is 2.58[a].

Regarding `Cc1ccc(C2(C)CC2)c(CNC(=O)c2snc(N)c2Cl)c1` [I-414], the LogP is 3.29[a].

Regarding `Cc1ccc(C(C)C)c(CNC(=O)c2snc(N)c2Cl)c1` [I-415], the LogP is 3.15[a].

For `Nc1nsc(C(=O)NCc2cc(Cl)ccc2Cl)c1Cl` [I-416], the LogP is 2.71[a]. Consider `Nc1nsc(C(=O)NCC2CCCCC2)c1C(F)F` [I-417], for which the LogP is 2.66[a]. Turning to `C[C@H](NC(=S)c1snc(N)c1Cl)C1CCCCC1` [I-418], the LogP is 3.85[a]. As for `COc1ccc(CNc2nsc(C(=O)NCc3ccc(F)c(OC)c3F)c2Cl)cc1` [I-426], the LogP is 3.69[a]. `C[C@H](NC(=O)c1snc(NCC(F)(F)F)c1Cl)C1CCCCC1` [I-427]: the LogP is 4.11[a].

In the case of `C[C@H](NC(=S)c1snc(NC2CC2)c1Cl)C1CCCCC1` [I-428], the LogP was 4.84[a].

For `C[C@H](NC(=S)c1snc(NCC(F)(F)F)c1Cl)C1CCCCC1` [I-429], the LogP is 5.14[a].

On to `O=CNc1cc(C(=O)NCc2ccc(F)cc2F)sn1` [I-430], for which the LogP was 1.79[a].
